Measurements from US8993781B2, “Fluorescent boron-substituted dipyrromethenes and use thereof for diagnosis” (Centre National de la Recherche Scientifique, priority 2008, dated 2015).

Experiments:
PC12 cells = assay: Spectral index of the labeled amyloid peptide on PC12 cells preincubated with unlabeled beta-amyloid peptide; assay type: cell-based, rat; settings: PC12 cells preincubated 12 hours with 100 or 250 nM unlabeled peptide, FIG. 5, 4 independent experiments in triplicate
Experimental: PC12 cells (derived from male rat medullo-adrenal gland tumor) are inoculated into glass-bottomed Petri dishes previously treated with collagen and polyornithine. They are cultured for 7 days in an atmosphere containing 5% of CO2 at 37° C. in RPMI 1640 medium containing glutamine and supplemented with 10% of horse serum, 5% of fetal calf serum, 50 U/mL of penicillin and 50 μg/mL of streptomycin. To induce the differentiation of the cells, 50 ng/mL of murine neurotrophic growth factor (NGF) 2.5S are added to the medium 24 hours after the inoculation.
The day before the measurement, unlabeled beta-amyloid peptide 1-42 of SEQ. ID. No.: 1 or the corresponding unlabeled reverse peptide (42-1) of SEQ ID No.: 2 is added at different concentrations lying between 10 and 1000 nmol·L^−1.
The following day, this preparation is washed 3 times with Krebs medium at ambient temperature and placed on an inverted microscope coupled with a spectro-fluorimeter. A fluorescence spectrum (excitation 480 nm; emission 495-600 nm) of the base line is recorded before the addition of the labeled amyloid peptide (250 nmol·L^−1). A second fluorescence spectrum is recorded after 10 minutes of incubation.
The base line spectrum is subtracted from the fluorescence spectrum of the labeled amyloid peptide. […] The ratio of the amplitude (measured graphically or else with the deconvolution software) of the Gaussian curves centered respectively at 525 nm and 540 nm defines a spectral index describing the distribution of the spectrum
The PC12 cells are preincubated for 12 hours in the presence of unlabeled beta-amyloid peptide 1-42 or 42-1 then rinsed before being placed under a microscope coupled to a spectrofluorimeter. A first spectrum (base line) is recorded.
Next, the labeled beta-amyloid peptide is added. A spectrum is recorded 10 minutes after the addition of the fluorescent compound.
The spectral index is the ratio between the amplitude of the first and that of the second Gaussian calculated by deconvolution (see FIG. 4).

rat erythrocytes = assay: Spectral index of the labeled amyloid peptide on rat erythrocytes preincubated with unlabeled beta-amyloid peptide; assay type: cell-based; settings: rat erythrocytes incubated 2 hours at 37° C. with unlabeled peptide (10-1000 nmol·L^-1); FIG. 6
Experimental: A sample of rat blood (1 to 3 ml) is collected in a heparinized tube. The sample is diluted with Krebs medium then centrifuged three times discarding the buffer layer (“buffy coat”). The erythrocytes obtained are next incubated at 37° C. for 2 hours in the presence of the unlabeled beta-amyloid peptide 1-42 or the corresponding unlabeled reverse peptide (42-1) at various concentrations (10-1000 nmol·L^−1). After an additional washing, the cells are placed in a spectro-fluorimeter and a fluorescence spectrum (excitation 480 nm; emission 495-600 nm) of the base line is recorded before the addition of the labeled amyloid peptide (250 nmol·L^−1). A second fluorescence spectrum is recorded after 10 minutes of incubation in the presence of the labeled amyloid peptide.
The base line spectrum is subtracted from the fluorescence spectrum of the labeled beta-amyloid peptide. The spectrum obtained is broken down into 4 component Gaussian curves by deconvolution and non-linear regression. The ratio of the amplitude of the Gaussian centered around 510 nm to the amplitude of the Gaussian centered around 530 nm is calculated. Its value varies as a function of the concentration of unlabeled beta-amyloid peptide 1-42 in the presence of which the cells were incubated as illustrated in FIG. 6.

Substance | change in the value of the spectral index of the labeled amyloid peptide induced by preincubation with unlabeled peptide (PC12 cells) | value of the spectral index (ratio of Gaussian amplitudes around 510 nm and 530 nm) of the labeled amyloid peptide after preincubation with unlabeled peptide (rat erythrocytes) | change in the value of the spectral index of the labeled amyloid peptide induced by preincubation with unlabeled peptide (PC12 cells; listed as β-amyloid peptide 42-1)
beta-amyloid peptide 1-42: unlabeled human beta-amyloid peptide 1-42 of SEQ ID No.: 1 | increases with the increase in concentration of peptide preincubated | increases as a function of the concentration | –
beta-amyloid peptide 42-1: corresponding unlabeled reverse peptide (42-1) of SEQ ID No.: 2, inactive (AIVVGGVMLGIIAGKNSGVDEAFFVLKQHHVEYGSDHRFEAD; listed as Homo sapiens) | no significant effect | – | absence of change
